Assay results from US20240398725A1, “NANOPARTICLES FOR CANCER TREATMENT” (priority 2021, published 2024).

What was measured:
[1] = system: SW872-DXR; experiment: MTS assay, doxorubicin IC50 in doxorubicin-resistant SW872-DXR; assay type: cell-based; settings: Homo sapiens
Text: (§1) The dedifferentiated liposarcoma cell line (SW872) is one of the earliest STS model systems that has been extensively studied in preclinical investigations (Dodd 2010, Stratford 2012).
(§2) The SW872-DXR model was derived from the commercial cell line SW872. The resistance to doxorubicin was initiated in 2D cultures, by adding increased concentrations of doxorubicin every 2 weeks, starting from the IC50 concentrations of doxorubicin of the “parental” cell line SW872. The resistance of this cell line was verified by 3-(4,5-dimethylthiazol-2-yl)-5-(3-carboxymethoxyphenyl)-2-(4-sulfophenyl)-2H-tetrazolium (MTS) assay.

[2] = system: SW872; experiment: MTS assay, doxorubicin IC50 in parental cell line SW872; assay type: cell-based; settings: Homo sapiens
Text: as §1, §2

- IC50 [1]: > 1000 nM
SMILES: COc1cccc2c1C(=O)c1c(O)c3c(c(O)c1C2=O)C[C@@](O)(C(=O)CO)C[C@@H]3O[C@H]1C[C@H](N)[C@H](O)[C@H](C)O1 [doxorubicin]
- IC50 [2]: ~200 nM
